Test results taken from article PMC6022709 (BMC Research Notes, 2018).
≈ marks a conversion by molar mass, not a printed value. Numbered stars: 1 amine (or outer) side, 2 acyl side, 3 side chain; on linkers, the order of the positions; unused ones are H or OH. Square brackets hold non-standard residues; d marks the D form. Peptide text beside a SMILES is read from it. ξ: configuration not given here. X1 = CC[C@H](C)[C@@H](C(=O)[*:2])N(O)[*:1]; ξPiz(1,6-dehydro) = O=C(O)C1CCC=NN1; ξN(OH)Ile(3ξ) = CCC(C)C(NO)C(=O)O; dNMeF = CN[C@H](Cc1ccccc1)C(=O)O; NMeF = CN[CH](Cc1ccccc1)C(=O)O; X2 = O=C(C1CCCNN1[*:1])[*:2]; Pip = O=C(O)[C@@H]1CCCCN1; dPip = O=C(O)[C@H]1CCCCN1

Tests used:
[1] = system: M. tuberculosis H37Rv-LP (ATCC 25618) expressing a red fluorescent protein; details: for MIC90: H37Rv
[2] = system: M. tuberculosis H37Rv-LP (ATCC 25618) expressing a red fluorescent protein; assay: microbe, parasite or virus in culture; details: Mycobacterium tuberculosis
M. tuberculosis WT = assay type: cell-based, Mycobacterium tuberculosis

| Compound | MIC90 [1] | also measured |
| --- | --- | --- |
| CCC(C)C1NC(=O)C(Cc2ccccc2)NC(=O)C2CCCN2C(=O)C(Cc2ccccc2)N(C)C(=O)C2CCC=NN2C(=O)C2CCC=NN2C1=O (stereo not drawn) [Compound 7] (cyclo([ξPiz(1,6-dehydro)][ξPiz(1,6-dehydro)][NMeF]PFI); configuration not given here) | > 20 µM | – |
| CCCC1C(=O)N2CCCC2C(=O)NC(CC(C)C)C(=O)N(O)C(CC(C)C)C(=O)N2NCCCC2C(=O)N2NCCCC2C(=O)N1C (stereo not drawn) [Compound 16] | > 20 µM | – |
| CC[C@H](C)[C@H]1C(=O)N2CCCC[C@@H]2C(=O)N2CCCC[C@H]2C(=O)N(C)[C@H](Cc2ccccc2)C(=O)N2CCC[C@H]2C(=O)N[C@H](Cc2ccccc2)C(=O)N1O [Compound 15] (cyclo([dNMeF]P[dF][X1][dPip][Pip])) | > 20 µM | anti-tubercular activity (in words) [1]: loss of anti-tubercular activity |
| CO[C@H]1/C=C/O[C@@]2(C)Oc3c(C)c(O)c4c(O)c(c(/C=N/N5CCN(C)CC5)c(O)c4c3C2=O)NC(=O)/C(C)=C\C=C\[C@H](C)[C@H](O)[C@@H](C)[C@@H](O)[C@@H](C)[C@H](OC(C)=O)[C@@H]1C [Rifampicin] | – | MIC [2]: 0.0077 µM (≈ 0.00634 µg/mL) |
| CC[C@H](C)[C@H]1C(=O)N2NCCC[C@@H]2C(=O)N2NCCC[C@H]2C(=O)N(C)[C@H](Cc2ccccc2)C(=O)N2CCC[C@H]2C(=O)N[C@H](Cc2ccccc2)C(=O)N1CC(C)=O [Compound 5] | 8.2 ± 1.2 µM (≈ 6.55 µg/mL) | – |
| CCC(C)C1C(=O)N2CCCC2C(=O)NC(CC(C)C)C(=O)N(O)C(CC(C)C)C(=O)N2NCCCC2C(=O)N2NCCCC2C(=O)N1C (stereo not drawn) [Compound 4] | 7.3 ± 1.9 µM (≈ 5.04 µg/mL) | – |
| CC(C)CC1C(=O)N2NCCCC2C(=O)N2NCCCC2C(=O)N(C)C(Cc2ccccc2)C(=O)N2CCCC2C(=O)NC(Cc2ccccc2)C(=O)N1O (stereo not drawn) [Compound 1, cyclo[N-(Me)Phe-Pro-Phe-N-(OH)Leu-Piz-Piz]] | 2.3 ± 0.5 µM (≈ 1.75 µg/mL) | MIC99 (M. tuberculosis WT): 1.6 µM (≈ 1.21 µg/mL) |
| CC(C)CC1C(=O)N2NCCCC2C(=O)N2NCCCC2C(=O)N(C)C(Cc2ccccc2)C(=O)N2CCCC2C(=O)NC(C(C)C)C(=O)N1O (stereo not drawn) [Compound 3] | 8.9 ± 1.8 µM (≈ 6.33 µg/mL) | MIC99 (M. tuberculosis WT): 0.8 µM (≈ 0.569 µg/mL) |
| CCC(C)C1C(=O)N2NCCCC2C(=O)N2NCCCC2C(=O)N(C)C(Cc2ccccc2)C(=O)N2CCCC2C(=O)NC(Cc2ccccc2)C(=O)N1O (stereo not drawn) [Compound 2] (cyclo([ξN(OH)Ile(3ξ)][X2][X2][NMeF]PF); configuration not given here) | 2.8 ± 0.8 µM (≈ 2.12 µg/mL) | – |
